Reference: patent publication EP4755378A1, “DYRK2 INHIBITORS FOR TREATING TUMOURS WITH THE HYPERACTIVE MAPK/ERK PATHWAY” (Universidad de Córdoba, priority 2023, dated 2025)

Key:
Assay type in all cases: cell-based
HCT116 cells = assay: XTT cell viability assay, HCT116 cells; details: HCT116 (mutated RAS), 48 hours, Figure 14
A549 cells = assay: XTT cell viability assay, A549 cells; details: A549 (mutated RAS), 48 hours, Figure 15
HT-29 cells = assay: XTT cell viability assay, HT-29 cells; details: HT-29 (B-RAF V600E), different doses of Dabrafenib, with or without LDN192960 10 µM, 48 hours, Figure 16
pERK1/2-T202/T204 = assay: Western-blot of ERK1/2 activation loop phosphorylation in HEK-293T cells; details: Dabrafenib 10 µM 24 hours, EGF 50-100 ng/ml 5 minutes, Figure 13A
DYRK2 = assay: Western-blot of DYRK2 protein levels in HEK-293T cells; details: for DYRK2 levels: HEK-293T transfected with Flag-DYRK2, inhibitor 10 µM for 24 hours, Figure 13B

SMILES	cell viability (tumour survival) (HCT116 cells; low doses of Dabrafenib)	cell viability (HCT116 cells; very high doses of Dabrafenib)	cell viability (tumour survival) (A549 cells; low doses of Dabrafenib)	cell viability (A549 cells; very high doses of Dabrafenib)	cell viability (HT-29 cells)	pathway activation (pERK1/2-T202/T204)	DYRK2 stabilisation (DYRK2; HEK-293T transfected with Flag-DYRK2, Dabrafenib 10 µM 24 hours, Figure 13A)	DYRK2 levels (DYRK2)
CC(C)(C)c1nc(-c2cccc(NS(=O)(=O)c3c(F)cccc3F)c2F)c(-c2ccnc(N)n2)s1 [Dabrafenib]	increase in tumour survival compared to the control	slightly reducing cell viability	increase in tumour survival compared to the control	slightly reducing cell viability	dose-dependent decrease in viability	reduction in pathway activation	DYRK2 stabilisation was observed	increasing DYRK2 levels
N#CC(=C(/N)Sc1ccccc1N)/C(C#N)=C(\N)Sc1ccccc1N [U0126]	–	–	–	–	–	–	–	increasing DYRK2 levels
